Test system: MV-4-11 cells
Assay: Gene expression microarray analysis (Affymetrix PrimeView) and GSEA
Assay type: cell-based, human
Parameters: RFU PODN (11730768_x_at) / Fold change /veh PODN (11730768_x_at) / RFU LINC00158 (11744669_a_at) / Fold change /veh LINC00158 (11744669_a_at) / RFU DUSP10 (11751237_a_at) / Fold change /veh DUSP10 (11751237_a_at) / RFU ID3 (11757404_x_at) / Fold change /veh ID3 (11757404_x_at) / RFU PLEKHG5 (11737974_s_at) / Fold change /veh PLEKHG5 (11737974_s_at) / RFU LRRC4B (11730491_at) / Fold change /veh LRRC4B (11730491_at) / RFU GIMAP4 (11747438_a_at) / Fold change /veh GIMAP4 (11747438_a_at) / RFU KRT8 (11758183_x_at) / Fold change /veh KRT8 (11758183_x_at) / RFU CNN1 (11734310_a_at) / Fold change /veh CNN1 (11734310_a_at) / RFU VPS37D (11726825_at) / Fold change /veh VPS37D (11726825_at) / RFU C10orf10 (11716522_x_at) / Fold change /veh C10orf10 (11716522_x_at) / RFU KIR2DL2 /// KIR2DL4 /// KIR2DL5A /// KIR2DL5B /// KIR2DS1 /// KIR2DS2 /// KIR2DS3 /// KIR2DS4 /// KIR3DL3 /// KIR3DL3 /// KIR3DS1 (11738374_at) / Fold change /veh KIR2DL2 /// KIR2DL4 /// KIR2DL5A /// KIR2DL5B /// KIR2DS1 /// KIR2DS2 /// KIR2DS3 /// KIR2DS4 /// KIR3DL3 /// KIR3DL3 /// KIR3DS1 (11738374_at) / RFU C1QL1 (11718748_at) / Fold change /veh C1QL1 (11718748_at) / RFU TMPRSS4 (11747572_a_at) / Fold change /veh TMPRSS4 (11747572_a_at) / RFU HAMP (11756126_x_at) / Fold change /veh HAMP (11756126_x_at) / RFU RNFT2 (11725882_a_at) / Fold change /veh RNFT2 (11725882_a_at) / RFU NR4A2 (11747474_a_at) / Fold change /veh NR4A2 (11747474_a_at) / RFU ABCC12 (11746883_a_at) / Fold change /veh ABCC12 (11746883_a_at) / RFU TMEM136 (11760407_x_at) / Fold change /veh TMEM136 (11760407_x_at) / RFU CLDN22 /// WWC2 (11732394_at) / Fold change /veh CLDN22 /// WWC2 (11732394_at) / RFU HLA-DPB1 (11760878_x_at) / Fold change /veh HLA-DPB1 (11760878_x_at) / RFU SPINT1 (11716480_a_at) / Fold change /veh SPINT1 (11716480_a_at) / RFU GAP43 (11754022_s_at) / Fold change /veh GAP43 (11754022_s_at) / RFU A4GNT (11735810_at) / Fold change /veh A4GNT (11735810_at) / RFU PRB3 (11715151_x_at) / Fold change /veh PRB3 (11715151_x_at) / RFU TUBB4B (11761932_at) / Fold change /veh TUBB4B (11761932_at) / RFU CAPN14 (11732068_a_at) / Fold change /veh CAPN14 (11732068_a_at) / RFU TMCC2 (11721928_a_at) / Fold change /veh TMCC2 (11721928_a_at) / RFU IRGQ (11745062_a_at) / Fold change /veh IRGQ (11745062_a_at) / RFU FAM174B (11720279_a_at) / Fold change /veh FAM174B (11720279_a_at) / RFU TMPRSS4 (11748680_a_at) / Fold change /veh TMPRSS4 (11748680_a_at) / RFU FAM212B (11763350_a_at) / Fold change /veh FAM212B (11763350_a_at) / RFU PLEKHG5 (11743358_a_at) / Fold change /veh PLEKHG5 (11743358_a_at) / RFU ZSCAN30 (11745921_a_at) / Fold change /veh ZSCAN30 (11745921_a_at) / RFU CMKLR1 (11741424_a_at) / Fold change /veh CMKLR1 (11741424_a_at) / RFU LOC101060620 /// MAPK8IP1 (11723275_at) / Fold change /veh LOC101060620 /// MAPK8IP1 (11723275_at) / RFU SPTSSB (11747773_x_at) / Fold change /veh SPTSSB (11747773_x_at) / RFU PRSS12 (11739890_at) / Fold change /veh PRSS12 (11739890_at) / RFU BIN1 (11741810_x_at) / Fold change /veh BIN1 (11741810_x_at) / RFU WNT11 (11732464_a_at) / Fold change /veh WNT11 (11732464_a_at) / RFU C10orf10 (11716521_a_at) / Fold change /veh C10orf10 (11716521_a_at) / RFU C5orf56 (11738089_at) / Fold change /veh C5orf56 (11738089_at) / RFU CYB561 (11721691_x_at) / Fold change /veh CYB561 (11721691_x_at) / RFU ANKRD19P (11752326_a_at) / Fold change /veh ANKRD19P (11752326_a_at) / RFU OR2T12 /// OR2T33 /// OR2T8 (11738714_s_at) / Fold change /veh OR2T12 /// OR2T33 /// OR2T8 (11738714_s_at) / RFU VCAN (11748164_a_at) / Fold change /veh VCAN (11748164_a_at) / RFU JSRP1 (11732532_at) / Fold change /veh JSRP1 (11732532_at) / RFU KRTAP10-11 (11738290_x_at) / Fold change /veh KRTAP10-11 (11738290_x_at) / RFU MYO3A (11730013_a_at) / Fold change /veh MYO3A (11730013_a_at) / RFU EBF3 (11725865_a_at) / Fold change /veh EBF3 (11725865_a_at) / RFU CAMK2N1 (11719241_x_at) / Fold change /veh CAMK2N1 (11719241_x_at) / RFU C5orf56 (11738088_a_at) / Fold change /veh C5orf56 (11738088_a_at) / RFU OLFML3 (11715873_a_at) / Fold change /veh OLFML3 (11715873_a_at) / RFU LOC100653217 /// NTM (11731650_a_at) / Fold change /veh LOC100653217 /// NTM (11731650_a_at) / RFU MAPK11 (11762145_a_at) / Fold change /veh MAPK11 (11762145_a_at) / RFU FIZ1 (11724087_x_at) / Fold change /veh FIZ1 (11724087_x_at) / RFU OASL (11726364_x_at) / Fold change /veh OASL (11726364_x_at) / RFU SOX15 (11748057_x_at) / Fold change /veh SOX15 (11748057_x_at) / RFU CD79A (11719716_a_at) / Fold change /veh CD79A (11719716_a_at) / RFU HIST1H1D (11736915_at) / Fold change /veh HIST1H1D (11736915_at) / RFU CASKIN2 (11723855_a_at) / Fold change /veh CASKIN2 (11723855_a_at) / RFU LOC730098 (11760151_x_at) / Fold change /veh LOC730098 (11760151_x_at) / RFU OR4N2 (11742367_at) / Fold change /veh OR4N2 (11742367_at) / RFU PRRT2 (11749266_a_at) / Fold change /veh PRRT2 (11749266_a_at) / RFU SNX32 (11753110_a_at) / Fold change /veh SNX32 (11753110_a_at) / RFU CDHR5 (11726645_a_at) / Fold change /veh CDHR5 (11726645_a_at) / RFU RCAN1 (11760418_a_at) / Fold change /veh RCAN1 (11760418_a_at) / RFU FAM167A (11723789_a_at) / Fold change /veh FAM167A (11723789_a_at) / RFU FAM26E (11764081_at) / Fold change /veh FAM26E (11764081_at) / RFU ISYNA1 (11749810_s_at) / Fold change /veh ISYNA1 (11749810_s_at) / RFU ACY1 (11761880_at) / Fold change /veh ACY1 (11761880_at) / RFU 11764098_at / Fold change /veh 11764098_at / RFU SAMD14 (11745864_x_at) / Fold change /veh SAMD14 (11745864_x_at) / RFU NPB (11741838_a_at) / Fold change /veh NPB (11741838_a_at) / RFU TMPRSS6 (11731388_a_at) / Fold change /veh TMPRSS6 (11731388_a_at) / RFU KRTAP10-2 (11738614_at) / Fold change /veh KRTAP10-2 (11738614_at) / RFU ARHGAP8 /// PRR5-ARHGAP8 (11727945_x_at) / Fold change /veh ARHGAP8 /// PRR5-ARHGAP8 (11727945_x_at) / RFU KRTAP5-7 /// NADSYN1 (11734609_at) / Fold change /veh KRTAP5-7 /// NADSYN1 (11734609_at) / RFU RASL12 (11751679_a_at) / Fold change /veh RASL12 (11751679_a_at) / RFU CDKN2B (11736163_a_at) / Fold change /veh CDKN2B (11736163_a_at) / RFU PRF1 (11729649_at) / Fold change /veh PRF1 (11729649_at) / RFU, ZNF638 /// ZNF638-IT1 / Fold change vs veh, ZNF638 /// ZNF638-IT1 / RFU, PANK3 / Fold change vs veh, PANK3 / RFU, SH3YL1 / Fold change vs veh, SH3YL1 / RFU, ZEB2 / Fold change vs veh, ZEB2 / RFU, NRIP1 / Fold change vs veh, NRIP1 / RFU, PTTG1IP / Fold change vs veh, PTTG1IP / RFU, CAPN2 / Fold change vs veh, CAPN2 / RFU, MED14 / Fold change vs veh, MED14 / RFU, SNORA58 / Fold change vs veh, SNORA58 / RFU, C1orf63 / Fold change vs veh, C1orf63 / RFU, LRRFIP1 / Fold change vs veh, LRRFIP1 / RFU, NDUFAF7 / Fold change vs veh, NDUFAF7 / RFU, SLC12A2 / Fold change vs veh, SLC12A2 / RFU, IBTK / Fold change vs veh, IBTK / RFU, ESF1 / Fold change vs veh, ESF1 / Fold change vs veh, TMEM50B / RFU, TAOK1 / Fold change vs veh, TAOK1 / RFU, ACBD3 / Fold change vs veh, ACBD3 / RFU, TMA16 / Fold change vs veh, TMA16 / RFU, RWDD3 / Fold change vs veh, RWDD3 / RFU, BCAT1 / Fold change vs veh, BCAT1 / RFU, EDEM3 / Fold change vs veh, EDEM3 / RFU, TMEM33 / Fold change vs veh, TMEM33 / RFU, WDR75 / Fold change vs veh, WDR75 / RFU, AHCTF1 / Fold change vs veh, AHCTF1 / RFU, TFRC / Fold change vs veh, TFRC / RFU, ZDHHC17 / Fold change vs veh, ZDHHC17 / RFU, NOM1 / Fold change vs veh, NOM1 / RFU, ARL8B / Fold change vs veh, ARL8B / RFU, ZBTB11 / Fold change vs veh, ZBTB11 / RFU, TAMM41 / Fold change vs veh, TAMM41 / RFU, KIAA1704 /// LOC100996395 / Fold change vs veh, KIAA1704 /// LOC100996395 / RFU, ING1 / Fold change vs veh, ING1 / RFU, TRMT61B / Fold change vs veh, TRMT61B / RFU, FUBP3 / Fold change vs veh, FUBP3 / RFU, TP53 / Fold change vs veh, TP53 / RFU, TNKS2 / Fold change vs veh, TNKS2 / RFU, ZFP14 / Fold change vs veh, ZFP14 / RFU, ACTR2 / Fold change vs veh, ACTR2 / RFU, PPP3R1 / Fold change vs veh, PPP3R1 / RFU, PIK3R1 / Fold change vs veh, PIK3R1 / RFU, HNRNPA1 / Fold change vs veh, HNRNPA1 / RFU, RNF170 / Fold change vs veh, RNF170 / RFU, ZNF28 / Fold change vs veh, ZNF28 / RFU, RNGTT / Fold change vs veh, RNGTT / RFU, OGT / Fold change vs veh, OGT / RFU, BRD1 / Fold change vs veh, BRD1 / RFU, MARS / Fold change vs veh, MARS / RFU, ZNF655 / Fold change vs veh, ZNF655 / RFU, FAHD1 / Fold change vs veh, FAHD1 / RFU, BDP1 / Fold change vs veh, BDP1 / RFU, LRRCC1 / Fold change vs veh, LRRCC1 / RFU, ARID1A / Fold change vs veh, ARID1A / RFU, ZNF146 / Fold change vs veh, ZNF146 / RFU, ZNF330 / Fold change vs veh, ZNF330 / RFU, GPN3 / Fold change vs veh, GPN3 / RFU, C9orf123 / Fold change vs veh, C9orf123 / RFU, N4BP2L2 / Fold change vs veh, N4BP2L2 / RFU, ARFIP1 / Fold change vs veh, ARFIP1 / RFU, FAM179B / Fold change vs veh, FAM179B / RFU, BCL10 / Fold change vs veh, BCL10 / RFU, UHRF1BP1L / Fold change vs veh, UHRF1BP1L / RFU, BET1 / Fold change vs veh, BET1 / RFU, CNOT2 / Fold change vs veh, CNOT2 / RFU, ZNF268 / Fold change vs veh, ZNF268 / Fold change vs veh, ZNF507 / RFU, DGCR2 / Fold change vs veh, DGCR2 / RFU, WDSUB1 / Fold change vs veh, WDSUB1 / Fold change vs veh, HSP90B1 /// MIR3652 / RFU, ADSS / Fold change vs veh, ADSS / RFU, GK / Fold change vs veh, GK / RFU, ZNF148 / Fold change vs veh, ZNF148 / RFU, TAF9 / Fold change vs veh, TAF9 / RFU, SLC1A5 / Fold change vs veh, SLC1A5 / RFU, SLMO2 / Fold change vs veh, SLMO2 / RFU, ABCC4 / Fold change vs veh, ABCC4 / RFU, LOC101060439 /// RAP1B / Fold change vs veh, LOC101060439 /// RAP1B / RFU, RFX7 / Fold change vs veh, RFX7 / RFU, GTPBP10 / Fold change vs veh, GTPBP10 / RFU, CNEP1R1 / Fold change vs veh, CNEP1R1 / RFU, BIVM-ERCC5 /// ERCC5 / Fold change vs veh, BIVM-ERCC5 /// ERCC5 / RFU, ILF3 / Fold change vs veh, ILF3 / RFU 11762660_at / Fold change /veh 11762660_at / RFU VCAN (11757783_s_at) / Fold change /veh VCAN (11757783_s_at) / RFU DDX43 (11728927_at) / Fold change /veh DDX43 (11728927_at) / RFU KRT8 (11758188_x_at) / Fold change /veh KRT8 (11758188_x_at) / RFU NKD1 (11759106_at) / Fold change /veh NKD1 (11759106_at) / RFU SRD5A1 (11742802_a_at) / Fold change /veh SRD5A1 (11742802_a_at) / RFU TPSAB1 /// TPSB2 (11721975_s_at) / Fold change /veh TPSAB1 /// TPSB2 (11721975_s_at) / RFU GSTM3 (11746129_a_at) / Fold change /veh GSTM3 (11746129_a_at) / RFU IL23R (11737362_x_at) / Fold change /veh IL23R (11737362_x_at) / RFU TMEM51 (11727254_a_at) / Fold change /veh TMEM51 (11727254_a_at) / RFU PIWIL2 (11732686_x_at) / Fold change /veh PIWIL2 (11732686_x_at) / RFU ORM1 (11744905_x_at) / Fold change /veh ORM1 (11744905_x_at) / RFU CCDC152 (11743942_at) / Fold change /veh CCDC152 (11743942_at) / RFU ECM1 (11717891_a_at) / Fold change /veh ECM1 (11717891_a_at) / RFU IL23R (11748794_a_at) / Fold change /veh IL23R (11748794_a_at) / RFU TNFAIP8L3 (11732012_x_at) / Fold change /veh TNFAIP8L3 (11732012_x_at) / RFU MBOAT4 (11741988_at) / Fold change /veh MBOAT4 (11741988_at) / RFU 11764193_at / Fold change /veh 11764193_at / RFU TMEM53 (11763286_at) / Fold change /veh TMEM53 (11763286_at) / RFU MAGEB2 (11727129_at) / Fold change /veh MAGEB2 (11727129_at) / RFU TMEM200A (11744735_a_at) / Fold change /veh TMEM200A (11744735_a_at) / RFU CCDC152 (11751479_a_at) / Fold change /veh CCDC152 (11751479_a_at) / RFU FAM211A (11726209_a_at) / Fold change /veh FAM211A (11726209_a_at) / RFU RGS16 (11746705_a_at) / Fold change /veh RGS16 (11746705_a_at) / RFU VCAN (11755009_s_at) / Fold change /veh VCAN (11755009_s_at) / RFU RHOB (11743442_s_at) / Fold change /veh RHOB (11743442_s_at) / RFU RGS16 (11720943_a_at) / Fold change /veh RGS16 (11720943_a_at) / RFU RGS16 (11720944_at) / Fold change /veh RGS16 (11720944_at) / RFU, VPS4B / Fold change vs veh, VPS4B / RFU, CREB1 / Fold change vs veh, CREB1 / RFU, DNAJC13 / Fold change vs veh, DNAJC13 / RFU, GNAQ / Fold change vs veh, GNAQ / RFU, CDK5R1 / Fold change vs veh, CDK5R1 / RFU, ZRANB3 / Fold change vs veh, ZRANB3 / RFU, CUL4A / Fold change vs veh, CUL4A / RFU, CCNY / Fold change vs veh, CCNY / RFU, UFL1 / Fold change vs veh, UFL1 / RFU, COG3 / Fold change vs veh, COG3 / RFU, DIAPH2 / Fold change vs veh, DIAPH2 / RFU, SKA2 / Fold change vs veh, SKA2 / RFU, AFF3 / Fold change vs veh, AFF3 / RFU, LMF1 / Fold change vs veh, LMF1 / RFU, IPO11 / Fold change vs veh, IPO11 / RFU, DFFB / Fold change vs veh, DFFB / RFU, FOXP1 / Fold change vs veh, FOXP1 / RFU, CARD8 / Fold change vs veh, CARD8 / RFU, STRN3 / Fold change vs veh, STRN3 / RFU, ADK / Fold change vs veh, ADK / RFU, RASSF2 / Fold change vs veh, RASSF2 / RFU, WIPF1 / Fold change vs veh, WIPF1 / RFU, LARP1B / Fold change vs veh, LARP1B / RFU, RASA1 / Fold change vs veh, RASA1 / RFU, RB1 / Fold change vs veh, RB1 / RFU, PPFIA1 / Fold change vs veh, PPFIA1 / RFU, MAT2A / Fold change vs veh, MAT2A / RFU, CCT5 / Fold change vs veh, CCT5 / RFU, WDR92 / Fold change vs veh, WDR92 / RFU, CUX1 / Fold change vs veh, CUX1 / RFU, TTC7A / Fold change vs veh, TTC7A / RFU, TMEM135 / Fold change vs veh, TMEM135 / RFU, DEPTOR / Fold change vs veh, DEPTOR / RFU, CPM / Fold change vs veh, CPM / RFU, DNAJB6 / Fold change vs veh, DNAJB6 / RFU, CACNA2D3 / Fold change vs veh, CACNA2D3 / RFU, DTX4 / Fold change vs veh, DTX4 / RFU, TFCP2 / Fold change vs veh, TFCP2 / RFU, GMCL1 /// GMCL1P1 / Fold change vs veh, GMCL1 /// GMCL1P1 / RFU, AEBP2 / Fold change vs veh, AEBP2 / RFU, SNHG1 /// SNORD22 /// SNORD25 /// SNORD26 /// SNORD27 /// SNORD28 /// SNORD29 /// SNORD31 / Fold change vs veh, SNHG1 /// SNORD22 /// SNORD25 /// SNORD26 /// SNORD27 /// SNORD28 /// SNORD29 /// SNORD31 / Fold change (Aza/veh), C12orf56 (ProbeSet 11735607_a_at) / Fold change (ACY-1035/veh), C12orf56 (ProbeSet 11735607_a_at) / Fold change (Aza/veh), FGFR1OP (ProbeSet 11751329_s_at) / Fold change (ACY-1035/veh), FGFR1OP (ProbeSet 11751329_s_at) / Fold change (Aza/veh), VPS36 (ProbeSet 11739960_a_at) / Fold change (ACY-1035/veh), VPS36 (ProbeSet 11739960_a_at) / RFU SYPL1 (11715823_x_at) / Fold change /veh SYPL1 (11715823_x_at) / RFU IGFBP7 (11715501_s_at) / Fold change /veh IGFBP7 (11715501_s_at) / RFU REEP3 (11722064_at) / Fold change /veh REEP3 (11722064_at) / RFU IGLL1 (11728026_x_at) / Fold change /veh IGLL1 (11728026_x_at): dose or concentration left out as unconfirmed
Details: MV-4-11 cells, 48 hours

Compound: Nc1ncn([C@@H]2O[C@H](CO)[C@@H](O)[C@H]2O)c(=O)n1 [azacitidine]
- RFU VPS37D (11726825_at): 18.02 RFU

From article PMC5218480 (PLoS ONE, 2017)
